Laboratory results taken from paper PMC6744390 (Drug Metabolism and Disposition, 2019).

Tests used:
plasma proteins = assay: Plasma protein binding by high-throughput equilibrium dialysis; assay type: in vitro ADME, dog; conditions: Mann–Whitney U test, n = 6 per group
[1] = as above; assay type: in vitro ADME, dog; conditions: both, dog, plasma

Row | difference in plasma protein binding between H1 and H2 allele plasma (plasma proteins) | fraction unbound at 4 h, 4 µM [1] | SMILES
1 | No significant difference | < 0.02 | Cc1ccc(-c2cc(C(F)(F)F)nn2-c2ccc(S(N)(=O)=O)cc2)cc1 [celecoxib]
2 | No significant difference | – | COc1c(C)c2c(c(O)c1C/C=C(\C)CCC(=O)O)C(=O)OC2 [mycophenolic acid]
